Test results reported in patent US8536202B2, “Triazole-substituted anthranilamides as pesticides” (Bayer Cropscience AG, priority 2010, dated 2013).
Where two headings read alike, the source gives them in different places.

Assays:
[1] = log P determination by HPLC on reversed-phase columns (EEC Directive 79/831 Annex V.A8); type: physicochemical; conditions: pH 2.7
Procedure: Determination by LC-MS in the acidic range takes place at a pH of 2.7 using 0.1% aqueous formic acid and acetonitrile (containing 0.1% formic acid) as eluents, with a linear gradient from 10% acetonitrile to 95% acetonitrile.
Calibration was carried out using unbranched alkan-2-ones (having 3 to 16 carbon atoms) with known log P values (the log P values are determined from the retention times by linear interpolation between two successive alkanones).

[2] = test system: caterpillars of the armyworm (Spodoptera frugiperda); test: Spodoptera frugiperda test (SPODFR spray treatment); type: in vivo; conditions: 168 h, read-out: activity in %
Procedure: (§1) Solvents: 78.0 parts by weight of acetone • • 1.5 parts by weight of dimethylformamide
(§2) Emulsifier: 0.5 part by weight of alkylaryl polyglycol ether
(§3) An appropriate preparation of active compound is prepared by mixing 1 part by weight of active compound with the stated amounts of solvent and emulsifier and diluting the concentrate with emulsifier-containing water to the desired concentration.
Leaf discs of maize (Zea mays) are sprayed with a preparation of active compound at the desired concentration and, after drying, are populated with caterpillars of the armyworm (Spodoptera frugiperda).
After 7 days, the activity in % is ascertained. Here, 100% means that all of the caterpillars have been killed; 0% means that no caterpillar has been killed.

[3] = test system: larvae of the mustard beetle (Phaedon cochleariae); test: Phaedon test (PHAECO spray treatment); type: in vivo; conditions: 168 h, read-out: activity in %
Procedure: as §1, §2, §3
After 7 days, the activity in % is ascertained. Here, 100% means that all of the beetle larvae have been killed; 0% means that no beetle larvae have been killed.

[4] = reversed-phase C18 HPLC column, HPLC on reversed-phase columns (C 18), EEC Directive 79/831 Annex V.A8, read-out: logP

| chromatographic logP [1, 4] | SMILES | chromatographic logP [1] | pest or weed control at 100 g/ha ([2]; 100 g/ha, after 7 days) [%] | pest or weed control at 100 g/ha ([3]; 100 g/ha, after 7 days) [%] | chromatographic logP ([1]; HPLC on reversed-phase columns (C 18), EEC Directive 79/831 Annex V.A8, read-out: logP) | pest or weed control at 100 g/ha [2] [%] | pest or weed control at 100 g/ha [3] [%] |
| --- | --- | --- | --- | --- | --- | --- | --- |
| – | CNC(=O)c1cc(C#N)cc(C)c1NC(=O)c1cc(Cn2nc3ccc(C(F)(F)F)cc3n2)nn1-c1ncccc1Cl [Example 102] | 3.19 | 100 | 100 | – | – | – |
| – | NC(=O)c1cc(Cl)cc(Cl)c1NC(=O)c1cc(Cn2ncc(C(F)(C(F)(F)F)C(F)(F)F)n2)nn1-c1ncccc1Cl [Example 279] | 3.46 | 100 | 100 | – | – | – |
| – | CNC(=O)c1cc(Cl)cc(C)c1NC(=O)c1cc(Cn2nc3ccc(F)cc3n2)nn1-c1ncccc1Cl [Example 79] | 2.89 | 100 | 100 | – | – | – |
| – | CNC(=O)c1cc(C#N)cc(C)c1NC(=O)c1cc(Cn2nc3ccc(Br)cc3n2)nn1-c1ncccc1Cl [Example 95] | 3.01 | 100 | 100 | – | – | – |
| – | Cc1cc(Cl)cc(C(=O)NC(C)C2CC2)c1NC(=O)c1cc(Cn2ccnn2)nn1-c1ncccc1Cl (centres unmarked) [Example 117] | 2.41 | 100 | 100 | – | – | – |
| 4.12 | Cc1cc(C#N)cc(C(=O)NC2(C3CC3)CC2)c1NC(=O)c1cc(Cn2ncc(C(F)(C(F)(F)F)C(F)(F)F)n2)nn1-c1ncccc1Cl [Example 283] | – | 100 | 100 | – | – | – |
| – | CNC(=O)c1cc(Cl)cc(C)c1NC(=O)c1cc(Cn2ncc(-c3ccccc3Cl)n2)nn1-c1ncccc1Cl [Example 27] | 3.43 | 100 | 100 | – | – | – |
| – | CNC(=O)c1cc(C#N)cc(C)c1NC(=O)c1cc(Cn2nnc3c(Cl)cc(C(F)(F)F)cc32)nn1-c1ncccc1Cl [Example 98] | 3.24 | 100 | 100 | – | – | – |
| – | Cc1cc(I)cc(C(=O)NC(C)(C)C)c1NC(=O)c1cc(Cn2nc(C(F)(F)F)c(C(F)(F)F)n2)nn1-c1ncccc1Cl [Example 404] | 4.84 | 100 | 100 | – | – | – |
| – | Cc1cc(I)cc(C(=O)NC(C)C)c1NC(=O)c1cc(Cn2ncc(C(F)(F)C(F)(F)F)n2)nn1-c1ncccc1Cl [Example 346] | 4.15 | 100 | 100 | – | – | – |
| 4.53 | CC(C)(C)NC(=O)c1cc(Cl)cc(Cl)c1NC(=O)c1cc(Cn2ncc(C(F)(C(F)(F)F)C(F)(F)F)n2)nn1-c1ncccc1Cl [Example 276] | – | 100 | 100 | – | – | – |
| – | CNC(=O)c1cc(Cl)cc(C)c1NC(=O)c1cc(Cn2nc3cc(Cl)c(Cl)cc3n2)nn1-c1ncccc1Cl [Example 77] | 3.73 | 100 | 100 | – | – | – |
| – | CNC(=O)c1cc(C#N)cc(C)c1NC(=O)c1cc(Cn2cc(-c3cccc(Cl)c3)nn2)nn1-c1ncccc1Cl [Example 36] | 2.86 | 100 | 100 | – | – | – |
| – | CC(C)NC(=O)c1cc(Cl)cc(Cl)c1NC(=O)c1cc(Cn2cc(C(F)(C(F)(F)F)C(F)(F)F)nn2)nn1-c1ncccc1Cl [Example 243] | 3.79 | 100 | 100 | – | – | – |
| – | CNC(=O)c1cc(Cl)cc(C)c1NC(=O)c1cc(Cn2nnc3c(Cl)cc(C(F)(F)F)cc32)nn1-c1ncccc1Cl [Example 89] | 3.59 | 100 | 100 | – | – | – |
| – | Cc1cc(C#N)cc(C(=O)NC(C)(C)C)c1NC(=O)c1cc(Cn2nnc3cc(C(F)(F)F)ccc32)nn1-c1ncccc1Cl [Example 113] | 3.5 | 100 | 100 | – | – | – |

| chromatographic logP [1, 4] | SMILES | chromatographic logP [1] | pest or weed control at 100 g/ha ([2]; 100 g/ha, after 7 days) [%] | pest or weed control at 100 g/ha ([3]; 100 g/ha, after 7 days) [%] | chromatographic logP ([1]; HPLC on reversed-phase columns (C 18), EEC Directive 79/831 Annex V.A8, read-out: logP) | pest or weed control at 100 g/ha [2] [%] | pest or weed control at 100 g/ha [3] [%] |
| --- | --- | --- | --- | --- | --- | --- | --- |
| – | Cc1cc(I)cc(C(=O)NC(C)C2CC2)c1NC(=O)c1cc(Cn2ncc(C(F)(F)C(F)(F)F)n2)nn1-c1ncccc1Cl (centres unmarked) [Example 357] | 4.45 | 100 | 100 | – | – | – |
| – | CNC(=O)c1cc(C#N)cc(C)c1NC(=O)c1cc(Cn2cc(-c3ccc(Cl)cc3Cl)nn2)nn1-c1ncccc1Cl [Example 34] | 3.2 | 100 | 100 | – | – | – |
| – | Cc1cc(C#N)cc(C(=O)NCC2CC2)c1NC(=O)c1cc(Cn2nc(C(F)(F)F)c(C(F)(F)F)n2)nn1-c1ncccc1Cl [Example 395] | 3.89 | 100 | 100 | – | – | – |
| – | O=C(NC1CCC1)c1cc(Cl)cc(Cl)c1NC(=O)c1cc(Cn2ncc(C(F)(F)F)n2)nn1-c1ncccc1Cl [Example 153] | 3.56 | 100 | 100 | – | – | – |
| – | CNC(=O)c1cc(Cl)cc(C)c1NC(=O)c1cc(Cn2cc(-c3cccc(Cl)c3)nn2)nn1-c1ncccc1Cl [Example 20] | 3.11 | 100 | 100 | – | – | – |
| – | CNC(=O)c1cc(Cl)cc(C)c1NC(=O)c1cc(Cn2ncc(-c3ccc(F)cc3)n2)nn1-c1ncccc1Cl [Example 24] | 3.23 | 100 | 100 | – | – | – |
| – | CNC(=O)c1cc(C#N)cc(C)c1NC(=O)c1cc(Cn2nnc3c(Cl)c(Cl)c(Cl)cc32)nn1-c1ncccc1Cl [Example 96] | 3.42 | 100 | 100 | – | – | – |
| – | Cc1cc(Cl)cc(C(=O)NC(C)C)c1NC(=O)c1cc(Cn2ncc(C(F)(F)C(F)(F)C(F)(F)F)n2)nn1-c1ncccc1Cl [Example 378] | – | – | – | 4.27 | 100 | 100 |
| – | CNC(=O)c1cc(Cl)cc(C)c1NC(=O)c1cc(Cn2nnc3cc(Br)ccc32)nn1-c1ncccc1Cl [Example 86] | 2.94 | 100 | 100 | – | – | – |
| – | Cc1cc(I)cc(C(=O)NC(C)C2CC2)c1NC(=O)c1cc(Cn2ncc(C(F)(F)F)n2)nn1-c1ncccc1Cl (centres unmarked) [Example 158] | 4.05 | 100 | 100 | – | – | – |
| – | Cc1cc(Cl)cc(C(=O)NCC2CC2)c1NC(=O)c1cc(Cn2cc(C(F)(F)F)nn2)nn1-c1ncccc1Cl [Example 195] | 3.22 | 100 | 100 | – | – | – |
| 4.58 | Cc1cc(I)cc(C(=O)NCC2CC2)c1NC(=O)c1cc(Cn2ncc(C(F)(C(F)(F)F)C(F)(F)F)n2)nn1-c1ncccc1Cl [Example 269] | – | 100 | 100 | – | – | – |
| – | CNC(=O)c1cc(C#N)cc(C)c1NC(=O)c1cc(Cn2cc(C(C)C)nn2)nn1-c1ncccc1Cl [Example 30] | 2.03 | – | 100 | – | – | – |
| – | CNC(=O)c1cc(C#N)cc(C)c1NC(=O)c1cc(Cn2cc(C(C)(C)C)nn2)nn1-c1ncccc1Cl [Example 31] | 2.25 | – | 100 | – | – | – |
| – | CNC(=O)c1cc(C#N)cc(C)c1NC(=O)c1cc(Cn2ncc(C(C)C)n2)nn1-c1ncccc1Cl [Example 38] | 2.58 | – | 100 | – | – | – |
| – | CNC(=O)c1cc(C#N)cc(C)c1NC(=O)c1cc(Cn2cc(C3CC3)nn2)nn1-c1ncccc1Cl [Example 29] | 1.86 | – | 100 | – | – | – |
